Test results as given in the METLIN SMRT retention time set (Domingo-Almenara et al. 2019).

Test: gradient 5% acetonitrile 3 min, to 50% in 2 min, to 85% in 15 min, held 3 min, 100 µL/min
Conditions: column: Zorbax Extend-C18 2.1 x 50 mm; eluents: water / acetonitrile, 0.1% formic acid
How it was run: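 Pure standards were analyzed in mixtures of ~100 molecules using HPLC coupled to a quadrupole time-of-flight mass spectrometer, in both positive and negative ionization mode. Separation used a Zorbax Extend-C18 column (2.1 × 50 mm, 1.8 μm) at 100 μL/min, with water and acetonitrile each containing 0.1% formic acid. Dead and dwell volumes were 40 μL and 900 μL, and data were collected over 3 months. Retention time was read from computationally picked adduct peaks, each inspected manually.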

SMILES	RP-LC retention time [s]
Cc1nn(CCCC(=O)NCCN(C)C)c(=O)c2c(-n3cccc3)n(-c3ccccc3)nc12	664
CC1CCN(CC[C@H]2CCCN2S(=O)(=O)c2cccc(O)c2)CC1	646
Cc1cc2nc(C)c(=O)n(CCC(=O)NCCc3c[nH]c4ccc(Cl)cc34)c2cc1C	902
Cn1c(=O)n([C@H]2CCCN(C(=O)Nc3ccc(F)cc3F)C2)c2ncccc21	752
COc1cccc(CN2CC(=O)N(Cc3cccc(F)c3)c3ccccc3S2(=O)=O)c1	1070
COc1cc(NC(=O)C2CCN(C(=O)c3ncn4c3COC(c3ccccc3)C4)CC2)cc(OC)c1 (centres undefined)	846
COc1ccccc1-c1coc2cc(OC(=O)c3cccc([N+](=O)[O-])c3)ccc2c1=O	1010
Cc1sc(-c2cc(C(F)(F)F)on2)cc1S(=O)(=O)Nc1ccccc1	1130
COc1cccc(NC(=O)N2CCC(n3c(-c4ccoc4)nc4cccnc43)C2)c1 (centres undefined)	715
O=C(CCN1C(=O)c2ccccc2S1(=O)=O)Nc1nc(-c2ccccc2)cs1	941
COc1ccc(Cl)cc1NC(=O)C1CCN(S(=O)(=O)c2ccc3c(c2)NC(=O)C(C)O3)CC1 (centres undefined)	946
Cc1ccc(-c2noc(-c3cc(N4CCN(C)CC4)nc4ccccc34)n2)cc1	835
COc1cccc(C(=O)Nc2cccn3ncnc23)c1	710
CCNC(=O)C1CCN(c2nc3ccc(-c4ccsc4)nc3s2)CC1	799
O=C(c1nnc(-c2ccc(S(=O)(=O)N3CCOCC3)cc2)o1)N1CCOCC1	689
CCN1CCN(C(=O)C2CC(c3ccccc3)=NO2)CC1 (centres undefined)	593
CCc1noc(C2(NC(=O)c3ccc(Br)cc3)CCCCC2)n1	1030
COc1ccc2ncc(C#N)c(Nc3cc(OC)c(OC)c(OC)c3)c2c1	626
CCSc1nc2ccc(NS(=O)(=O)Cc3ccc(Cl)cc3)cc2s1	1080
O=C(Cn1c(=O)n(-c2ccccc2)c2ncccc21)NCCCN1CCOCC1	596
CCOc1ccccc1NS(=O)(=O)c1cc(-c2c(C)noc2NC(C)=O)ccc1OC	798
CCOC(=O)c1ccccc1NC(=O)CSc1nnc2c3cc(-c4ccc(F)cc4)nn3ccn12	1030

SMILES	RP-LC retention time [s]
CCn1c(=O)c2cc(C(=O)NCCc3ccc(OC)c(OC)c3)nn2c2ccccc21	910
O=C(Cc1noc2ccccc12)NCCOc1ccc2nnc(-c3ccc(F)cc3)n2n1	679
O=C(C1CCN(c2cncnc2N2CCOCC2)CC1)N1CCOCC1	556
CCSc1ccc(-n2ncc(C(=O)NC3CC3)c2C)nn1	722
Cn1c(=O)c(N2CCC(NC(=O)Nc3cccc(C(F)(F)F)c3)CC2)nc2ccccc21	1010
COc1ccc(-n2ccc(=O)c(-c3nc(-c4ccccc4)no3)n2)cc1	856
Cc1ccc(CNC(=O)CN2C(=O)CCCc3cc(S(=O)(=O)N4CCC(C)CC4)ccc32)cc1	961
O=C(Nc1c(-c2ccccc2)nc2ccccn12)c1c(F)cccc1F	630
COC(=O)c1ccccc1NC(=O)c1c(O)c2cccnc2n(-c2ccc(F)cc2)c1=O	1180
Cc1ccc(-c2nnc(-c3nc(NCCc4ccco4)c4ccccc4n3)o2)cc1	1030
Cn1nc(CO)c2c1CCN(C(=O)c1cc(-c3cccs3)[nH]n1)C2	602
CC1CCN(C(=O)c2cc(S(=O)(=O)N3CCC(C(=O)N4CCCCCC4)CC3)cn2C)CC1	839
CC(C)c1noc(C2(NC(=O)c3ccccc3F)CCCCC2)n1	1020
Cc1cccc(CNc2nnc(-c3nc(C4CC4)no3)c3ccccc23)c1	938
CCn1cc(CCN2CCN(S(=O)(=O)c3cccc(C#N)c3)CC2)c2cccnc21	635
COCCN1C(=O)CCc2cc(NS(=O)(=O)c3cc(Cl)ccc3OC)ccc21	803
CN(C)c1ccc(C(=O)NC2CCN(c3ccc(F)cc3)C2=O)cc1 (centres undefined)	778
CC1CCN(C(=O)CN2C(=O)C3CCCCN3c3ccc(C(=O)N4CCCC4)cc32)CC1 (centres undefined)	815
Cc1ccc(C)c(NC(=O)c2csc(-c3ccc(N4CCCC4)nc3)n2)c1	830
O=C1CCCc2cc(S(=O)(=O)N3CCC(C(=O)N4CCc5ccccc54)CC3)ccc2N1	802
CC(C)c1ccc(CNC(=O)c2nnc(-c3ccc(S(=O)(=O)N(C)C)cc3)o2)cc1	1010
COc1ccc(-c2nc(Cn3ccn4nc(-c5ccccc5)cc4c3=O)c(C)o2)c(OC)c1	1030
